Assay results reported in article PMC10955571 (ACS Omega, 2024).
Where a SMILES comes first, the peptide text is derived from it. The star is where a group is joined. Isobutyryl = CC(C)C(=O)*; Cbz = O=C(OCc1ccccc1)*; OAll = C=CCO*

Tests used:
[1] = biological target: BACE-1 (Homo sapiens, UniProt P56817); experiment: BACE-1 FRET inhibition assay; assay type: biochemical
[2] = biological target: Human AChE (Homo sapiens, UniProt P22303); experiment: AChE inhibition, Ellman assay; assay type: biochemical
Human AChE, sequence (P22303 32-614): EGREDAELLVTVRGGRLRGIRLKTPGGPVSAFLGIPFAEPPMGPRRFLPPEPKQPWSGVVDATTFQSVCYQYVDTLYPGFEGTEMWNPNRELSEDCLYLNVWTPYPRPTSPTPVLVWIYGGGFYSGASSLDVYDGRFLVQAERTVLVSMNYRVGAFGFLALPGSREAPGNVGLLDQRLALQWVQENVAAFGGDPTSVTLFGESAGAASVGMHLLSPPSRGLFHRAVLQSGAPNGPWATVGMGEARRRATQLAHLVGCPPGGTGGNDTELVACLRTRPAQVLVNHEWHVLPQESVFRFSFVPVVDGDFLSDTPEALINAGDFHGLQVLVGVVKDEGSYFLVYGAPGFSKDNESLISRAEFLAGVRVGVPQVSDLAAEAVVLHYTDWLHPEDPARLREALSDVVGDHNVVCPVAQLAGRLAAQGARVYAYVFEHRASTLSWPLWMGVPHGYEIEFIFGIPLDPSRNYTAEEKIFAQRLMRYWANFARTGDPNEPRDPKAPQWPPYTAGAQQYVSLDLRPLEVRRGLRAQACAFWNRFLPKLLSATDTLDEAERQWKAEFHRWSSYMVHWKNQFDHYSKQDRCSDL

[3] = biological target: Aβ1–42 (Homo sapiens, UniProt P05067); experiment: Inhibition of Aβ1–42 self-induced aggregation, Thioflavin-T fluorometric assay; assay type: biochemical; settings: read-out: % inhibition of Aβ1–42 aggregation at 10 μM, 10 μM compound
Aβ1–42, sequence (P05067 672-713): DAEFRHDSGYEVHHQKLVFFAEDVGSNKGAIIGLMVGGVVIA

[4] = system: scopolamine-induced memory impairment in mice; experiment: Morris water maze test, scopolamine-induced memory impairment; assay type: in vivo, Swiss albino mice; settings: MWM, one animal from each group; for time taken by the animals to reach the platform, after the training (5th day): basal reading before any treatment; for time taken by the animals to reach the platform, after treatment with the test compound/donepezil (11th day): before scopolamine; for time taken by the animals to reach the platform, after treatment with the test compound/donepezil (11th day) / time taken by the animals to reach the platform, after treatment with scopolamine (14th day): compounds 10 mg/kg, donepezil 3 mg/kg; for time taken by the animals to reach the platform, after treatment with scopolamine (14th day): scopolamine 2 mg/kg i.p. days 12-14
[5] = PAMPA-BBB permeability; settings: for Papp at 5 h, 200 μM: PAMPA, pH 7.4
[6] = Plasma stability assay; assay type: in vitro ADME

BACE-1, sequence (P56817 46-501): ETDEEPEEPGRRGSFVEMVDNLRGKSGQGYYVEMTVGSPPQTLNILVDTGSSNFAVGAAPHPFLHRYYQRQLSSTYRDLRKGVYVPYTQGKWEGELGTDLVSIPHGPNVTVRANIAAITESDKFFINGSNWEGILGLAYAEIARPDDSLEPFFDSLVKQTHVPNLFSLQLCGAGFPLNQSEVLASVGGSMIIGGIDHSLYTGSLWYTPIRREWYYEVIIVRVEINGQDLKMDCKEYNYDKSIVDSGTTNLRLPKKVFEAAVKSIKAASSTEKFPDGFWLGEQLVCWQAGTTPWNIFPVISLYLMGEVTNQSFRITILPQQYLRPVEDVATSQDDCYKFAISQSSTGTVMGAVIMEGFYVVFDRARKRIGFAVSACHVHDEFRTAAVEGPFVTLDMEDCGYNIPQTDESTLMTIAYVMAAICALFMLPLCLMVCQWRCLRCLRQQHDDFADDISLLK

## C=CCOC(=O)[C@H](C)NC(=O)[C@@H]1CCCN1C(=O)CNC(=O)C(C)C [Compound 15, Isobut-Gly-Pro-Ala-O-allyl] (Isobutyryl-Gly-Pro-Ala-OAll)
[1]
  IC50: 0.05 ± 0.001 µM
[2]
  IC50: 0.05 ± 0.01 µM
[3]
  inhibition at 10 µM: > 50%
[4]
  time taken by the animals to reach the platform, after the training (5th day): 11 s
  time taken by the animals to reach the platform, after treatment with the test compound/donepezil (11th day): 11 s
  time taken by the animals to reach the platform, after treatment with scopolamine (14th day): 93 s
[5]
  Papp at 5 h, 200 μM: 1.8 ×10⁻⁶ cm/s

## Cn1c(=O)c2c(ncn2C)n(C)c1=O [caffeine, reference compound]
[5]; 200 μM in PBS pH 7.4, 5 h, room temperature
  Pe (PAMPA-BBB): 10.9 × 10^–6 cm s^–1
[5]
  Papp at 5 h, 200 μM: 10.9 ×10⁻⁶ cm/s

## CC(C)=CCC/C(C)=C/COC(=O)[C@H](C)NC(=O)[C@@H]1CCCN1C(=O)CNC(=O)OCc1ccccc1 [Compound 26, Cbz-Gly-Pro-Ala-O-Geranyl]
[1]
  IC50: 0.1 ± 0.01 µM
[2]
  IC50: 0.7 ± 0.1 µM
[3]
  inhibition at 10 µM: 31.8 ± 3.2%
[4]
  time taken by the animals to reach the platform, after the training (5th day): 7 s
  time taken by the animals to reach the platform, after treatment with the test compound/donepezil (11th day): 39 s
  time taken by the animals to reach the platform, after treatment with scopolamine (14th day): 45 s

## CC(C)=CCOC(=O)[C@H](C)NC(=O)[C@@H]1CCCN1C(=O)CNC(=O)C(C)C [Compound 16, Isobut-Gly-Pro-Ala-O-dimethylallyl]
[1]
  IC50: 0.2 ± 0.01 µM
[2]
  IC50: 1 ± 0.1 µM

## C[C@H](NC(=O)[C@@H]1CCCN1C(=O)CNC(=O)OCc1ccccc1)C(=O)OC/C=C/c1ccccc1 [Compound 25, Cbz-Gly-Pro-Ala-O-cinnamyl]
[1]
  IC50: 0.02 ± 0.001 µM
[2]
  IC50: 1 ± 0.2 µM
[3]
  inhibition at 10 µM: > 50%
[4]
  time taken by the animals to reach the platform, after the training (5th day): 20 s
  time taken by the animals to reach the platform, after treatment with the test compound/donepezil (11th day): 15 s
  time taken by the animals to reach the platform, after treatment with scopolamine (14th day): 15 s
[6]; 50 μM in plasma pH 7–8, 37 °C, 12 h incubation
  change in the concentration in plasma: ~10%
[6]; 50 μM in plasma, 37 °C
  effect of plasma on the half-life time: no remarkable effect on the half-life time
[5]
  Papp at 5 h, 200 μM: 17.8 ×10⁻⁶ cm/s

## C(=C\n1nncc1COc1ccc2ccccc2c1-c1c(OCc2cnnn2/C=C/Cc2ccccc2)ccc2ccccc12)/Cc1ccccc1 [Compound 33, 2,2′-Bis((1-((E)-3-phenylprop-1-en-1-yl)-1H-1,2,3-triazol-5-yl)methoxy)-1,1′-binaphthalene]
[1]
  IC50: 1 ± 0.1 µM
[2]
  IC50: 7 ± 1.4 µM
[3]
  inhibition at 10 µM: 43.2 ± 4.7%
[5]
  Papp at 5 h, 200 μM: 1.59 ×10⁻⁶ cm/s

## CC(C)=CCC/C(C)=C/COC(=O)[C@H](C)NC(=O)[C@@H]1CCCN1C(=O)CNC(=O)C(C)C [Compound 18, Isobut-Gly-Pro-Ala-O-Geranyl]
[1]
  IC50: 20 ± 2 µM
[2]
  IC50: 7 ± 1.3 µM
[3]
  inhibition at 10 µM: 12.5 ± 2.1%
[4]
  time taken by the animals to reach the platform, after the training (5th day): 5 s
  time taken by the animals to reach the platform, after treatment with the test compound/donepezil (11th day): 5 s
  time taken by the animals to reach the platform, after treatment with scopolamine (14th day): 71 s
[5]
  Papp at 5 h, 200 μM: 3.17 ×10⁻⁶ cm/s

## COC(=O)[C@H](C)NC(=O)[C@@H]1CCCN1C(=O)CNC(=O)C(C)C [Compound 13, Isobut-Gly-Pro-Ala-OMe] (Isobutyryl-Gly-Pro-Ala-OMe)
[1]
  IC50: 0.2 ± 0.03 µM
[2]
  IC50: 7 ± 1 µM
[3]
  inhibition at 10 µM: 36.3 ± 4.3%

## CCn1cc(C(=O)O)c(=O)c2cc(F)c(N3CCNCC3)cc21 [norfloxacin, reference compound]
[5]
  Papp at 5 h, 200 μM: 1.73 ×10⁻⁶ cm/s

## COC(=O)[C@H](C)NC(=O)[C@@H]1CCCN1C(=O)CNC(=O)OCc1ccccc1 [Compound 21, Cbz-Gly-Pro-Ala-OMe] (Cbz-Gly-Pro-Ala-OMe)
[1]
  IC50: 30 ± 4.1 µM
[2]
  IC50: 1000 ± 9.5 µM
[2]; Ellman assay, mean ± SEM
  IC50 AChE: millimolar range

## COc1cc2c(cc1OC)C(=O)C(CC1CCN(Cc3ccccc3)CC1)C2 (stereo not shown) [donepezil, reference compound]
[3]
  inhibition at 10 µM: 10.9 ± 1.4%
[4]
  time taken by the animals to reach the platform, after the training (5th day): 15 s
  time taken by the animals to reach the platform, after treatment with the test compound/donepezil (11th day): 17 s
  time taken by the animals to reach the platform, after treatment with scopolamine (14th day): 10 s

## C=CCOC(=O)[C@H](C)NC(=O)[C@@H]1CCCN1C(=O)CNC(=O)OCc1ccccc1 [Compound 23, Cbz-Gly-Pro-Ala-O-Allyl] (Cbz-Gly-Pro-Ala-OAll)
[1]
  IC50: 1 ± 0.2 µM
[2]
  IC50: 0.8 ± 0.1 µM

## COC(=O)[C@H](C)NC(=O)[C@@H]1CCCN1C(=O)CN [Compound 30, NH2-Gly-Pro-Ala-OMe] (H-Gly-Pro-Ala-OMe)
[1]
  IC50: 0.02 ± 0.001 µM
[2]
  IC50: 2 ± 1.1 µM
[3]
  inhibition at 10 µM: 33.7 ± 4.2%
[4]
  time taken by the animals to reach the platform, after the training (5th day): 20 s
  time taken by the animals to reach the platform, after treatment with the test compound/donepezil (11th day): 12 s
  time taken by the animals to reach the platform, after treatment with scopolamine (14th day): 65 s
[5]
  Papp at 5 h, 200 μM: 8.98 ×10⁻⁶ cm/s

## CC(C)C(=O)NCC(=O)N1CCC[C@H]1C(=O)N[C@@H](C)C(=O)OC/C=C/c1ccccc1 [Compound 17, Isobut-Gly-Pro-Ala-O-Cinnamyl]
[1]
  IC50: 0.1 ± 0.01 µM
[2]
  IC50: 0.9 ± 0.1 µM
[5]
  Papp at 5 h, 200 μM: 3.64 ×10⁻⁶ cm/s

## CN1[C@@H]2C[C@@H](OC(=O)[C@H](CO)c3ccccc3)C[C@H]1[C@@H]1O[C@@H]12 [scopolamine, reference compound]
[4]
  time taken by the animals to reach the platform, after treatment with scopolamine (14th day): 77 s

## CC(C)C(=O)NCC(=O)N1CCC[C@H]1C(=O)N[C@@H](C)C(=O)O [Compound 14, Isobut-Gly-Pro-Ala-OH] (Isobutyryl-Gly-Pro-Ala-OH)
[1]
  IC50: 0.6 ± 0.05 µM
[2]
  IC50: 8 ± 1.2 µM

## CC(C)=CCOC(=O)[C@H](C)NC(=O)[C@@H]1CCCN1C(=O)CNC(=O)OCc1ccccc1 [Compound 24, Cbz-Gly-Pro-Ala-O-dimethylallyl]
[1]
  IC50: 20 ± 2.3 µM
[2]
  IC50: 0.6 ± 0.03 µM

## C[C@H](NC(=O)[C@@H]1CCCN1C(=O)CNC(=O)OCc1ccccc1)C(=O)O [Compound 22, Cbz-Gly-Pro-Ala-OH] (Cbz-Gly-Pro-Ala-OH)
[1]
  IC50: 0.3 ± 0.02 µM
[2]
  IC50: 0.1 ± 0.01 µM
